From ChEMBL document CHEMBL1201862, “PubChem BioAssay data set” (2004)
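Five compound concentrations were applied to cells in 96-well plates for 48 hours; endpoints were derived by simple linear interpolation of the resulting dose-response curve. Here, GI50 denotes the concentration required for 50% inhibition of growth.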 Calls of active or inactive are those of the source. No stated cut-off is given here; in the data, active = GI50 up to about 1.1 µM and inactive = higher.

Legend:
Experiment in all cases: inhibition of tumour cell growth, NCI panel, 48 h
[1] = tested on: 786-0
[2] = tested on: HCC 2998
[3] = tested on: HL-60
[4] = tested on: KM-20L2
[5] = tested on: EKVX
[6] = tested on: HOP-92
[7] = tested on: RPMI-8226
[8] = tested on: OVCAR-4
[9] = tested on: OVCAR-8
[10] = tested on: SK-MEL-5
[11] = tested on: DMS-114
[12] = tested on: IGROV-1
[13] = tested on: UACC-62
[14] = tested on: CAKI-1
[15] = tested on: CCRF-CEM
[16] = tested on: OVCAR-3
[17] = tested on: UACC-257
[18] = tested on: TK-10
[19] = tested on: NCI-H460
[20] = tested on: Malme-3M
[21] = tested on: OVCAR-5
[22] = tested on: XF498
[23] = tested on: SK-MEL-2
[24] = tested on: SK-OV-3
[25] = tested on: SNB-75
[26] = tested on: SN12C
[27] = tested on: SW-620
[28] = tested on: M14
[29] = tested on: NCI-H522
[30] = tested on: DLD-1
[31] = tested on: UO-31
[32] = tested on: KM12
[33] = tested on: SNB-78
[34] = tested on: HCT-15
[35] = tested on: SF-268
[36] = tested on: HCT-116
[37] = tested on: ACHN
[38] = tested on: DMS-273
[39] = tested on: LXFL 529
[40] = tested on: SK-MEL-28
[41] = tested on: SF-539
[42] = tested on: A549
[43] = tested on: U-251
[44] = tested on: K562
[45] = tested on: LOX IMVI
[46] = tested on: NCI-H226
[47] = tested on: NCI-H23
[48] = tested on: COLO 205
[49] = tested on: HT-29
[50] = tested on: RXF 393
[51] = tested on: SNB-19
[52] = tested on: A498
[53] = tested on: HOP-62
[54] = tested on: MOLT-4
[55] = tested on: SF-295

## C1CCN(C2OC3C(COC3N3CCCCC3)OC2OC2CCO[C@@H]2N2CCCCC2)CC1 (stereo not given in full)
[1]
  GI50: 34.7 µM (inactive)
[2]
  GI50: > 100 µM (inactive)
[3]
  GI50: 8.47 µM (inactive)
[4]
  GI50: > 100 µM (inactive)
[5]
  GI50: 33.8 µM (inactive)
[6]
  GI50: 11 µM (inactive)
[7]
  GI50: 17.9 µM (inactive)
[8]
  GI50: 34 µM (inactive)
[9]
  GI50: 17.5 µM (inactive)
[10]
  GI50: 25.2 µM (inactive)
[11]
  GI50: 14.3 µM (inactive)
[12]
  GI50: 79.3 µM (inactive)
[13]
  GI50: 13.4 µM (inactive)
[14]
  GI50: 30.1 µM (inactive)
[15]
  GI50: 5.11 µM (inactive)
[16]
  GI50: 24.8 µM (inactive)
[17]
  GI50: 20.8 µM (inactive)
[18]
  GI50: 80.9 µM (inactive)
[19]
  GI50: > 100 µM (inactive)
[20]
  GI50: 21.1 µM (inactive)
[21]
  GI50: > 100 µM (inactive)
[22]
  GI50: 15.8 µM (inactive)
[23]
  GI50: 20.8 µM (inactive)
[24]
  GI50: 32.6 µM (inactive)
[25]
  GI50: 9.98 µM (inactive)
[26]
  GI50: 43.1 µM (inactive)
[27]
  GI50: 81.3 µM (inactive)
[28]
  GI50: 40.6 µM (inactive)
[29]
  GI50: 12.4 µM (inactive)
[30]
  GI50: 38.8 µM (inactive)
[31]
  GI50: 44.5 µM (inactive)
[32]
  GI50: 78.5 µM (inactive)
[33]
  GI50: 8.26 µM (inactive)
[34]
  GI50: 29.5 µM
[35]
  GI50: 53.7 µM (inactive)
[36]
  GI50: 34.7 µM (inactive)
[37]
  GI50: 25.9 µM (inactive)
[38]
  GI50: 32.1 µM (inactive)
[39]
  GI50: 17.3 µM (inactive)
[40]
  GI50: 57.9 µM (inactive)
[41]
  GI50: 16.5 µM (inactive)
[42]
  GI50: 51.3 µM (inactive)
[43]
  GI50: 30.5 µM (inactive)
[44]
  GI50: 28.4 µM (inactive)
[45]
  GI50: 75 µM (inactive)
[46]
  GI50: 20 µM (inactive)
[47]
  GI50: 21.1 µM (inactive)
[48]
  GI50: 38.3 µM (inactive)
[49]
  GI50: 89.1 µM (inactive)
[50]
  GI50: 8.18 µM (inactive)
[51]
  GI50: 36.2 µM (inactive)
[52]
  GI50: 34.1 µM (inactive)
[53]
  GI50: 36.2 µM (inactive)
[54]
  GI50: 15.8 µM (inactive)
[55]
  GI50: 47.5 µM (inactive)
